From patent US7425557B2, “Inhibitors of glycogen synthase kinase 3” (Novartis Vaccines and Diagnostics, Inc., priority 1998, dated 2008) come the findings set out here.

Molecules are shown by their SMILES.

The target of this assay is human GSK3β (Homo sapiens, UniProt P49841). The assay is described as follows: Screening for GSK3 inhibitory activity using a cell-free assay. The assay is classed as biochemical. Conditions: read-out: IC50 with respect to GSK3. In outline: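 Radiometric cell-free assay with recombinant human GSK3β phosphorylating a biotinylated peptide substrate for 3 h. Reactions were stopped with 50 μM ATP/20 mM EDTA and captured on streptavidin plates. Incorporated radiolabel was counted by scintillation and plotted against compound concentration.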
Chain of human GSK3β (P49841 whole entry): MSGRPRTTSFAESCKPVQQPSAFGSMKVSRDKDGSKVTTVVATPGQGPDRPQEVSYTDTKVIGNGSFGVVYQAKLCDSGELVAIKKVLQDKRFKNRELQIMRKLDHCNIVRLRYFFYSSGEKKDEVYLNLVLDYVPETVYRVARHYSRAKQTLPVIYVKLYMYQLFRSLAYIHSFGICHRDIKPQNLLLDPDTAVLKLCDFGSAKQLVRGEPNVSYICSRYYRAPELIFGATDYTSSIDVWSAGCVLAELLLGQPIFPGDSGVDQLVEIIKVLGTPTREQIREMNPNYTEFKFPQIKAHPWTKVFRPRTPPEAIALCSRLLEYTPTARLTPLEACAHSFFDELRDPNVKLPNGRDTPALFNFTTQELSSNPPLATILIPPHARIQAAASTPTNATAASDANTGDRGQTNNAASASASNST
Take `Cc1c[nH]c(-c2cnc(NCCNc3ccc([N+](=O)[O-])c(N)n3)nc2-c2ccc(Cl)cc2Cl)n1` [{2-[(6-amino-5-nitro(2-pyridyl))amino]-ethyl}[4-(2,4-dichlorophenyl)-5-(4-methylimidazol-2-yl)pyrimidin-2-yl]amine]: the IC50 was not above 1 µM. Turning to `Nc1nc(NCCNc2ncc(N3CCNCC3)c(-c3ccc(Cl)cc3Cl)n2)ccc1[N+](=O)[O-]` [{2-[(6-amino-5-nitro(2-pyridyl))amino]-ethyl}[4-(2,4-dichlorophenyl)-5-piperazinylpyrimidin-2-yl]amine], the IC50 was not above 1 µM.

As to `Cn1ccnc1-c1cnc(NCCNc2ccc([N+](=O)[O-])c(N)n2)nc1-c1ccc(Cl)cc1Cl` [{2-[(6-amino-5-nitro(2-pyridyl))amino]ethyl}[4-(2,4-dichlorophenyl)-5-(1-methylimidazol-2-yl)pyrimidin-2-yl]amine], the IC50 is not above 1 µM. In the case of `CN1CCN(c2cnc(NCCNc3ccc([N+](=O)[O-])c(N)n3)nc2-c2ccc(Cl)cc2Cl)CC1` [{2-[(6-amino-5-nitro(2-pyridyl))amino]ethyl}[4-(2,4-dichlorophenyl)-5-(4-methylpiperazinyl)-pyrimidin-2-yl]amine], the IC50 is not above 1 µM.

For `Nc1nc(NCCNc2ncc(-n3cnc(-c4ccccc4)c3)c(-c3ccc(Cl)cc3Cl)n2)ccc1[N+](=O)[O-]` [{2-[(6-amino-5-nitro(2-pyridyl))amino]ethyl}[4-(2,4-dichlorophenyl)-5-(4-phenylimidazolyl)pyrimidin-2-yl]amine], the IC50 was not above 1 µM. Turning to `Nc1nc(NCCNc2ncc(-c3ccncc3)c(-c3ccc(Cl)cc3Cl)n2)ccc1[N+](=O)[O-]` [{2-[(6-amino-5-nitro(2-pyridyl))amino]ethyl}[4-(2,4-dichlorophenyl)-5-(4-pyridyl)pyrimidin-2-yl]amine], the IC50 is not above 1 µM.

Take `Nc1nc(NCCNc2ncc(CN3CCOCC3)c(-c3ccc(Cl)cc3Cl)n2)ccc1[N+](=O)[O-]` [{2-[(6-amino-5-nitro(2-pyridyl))amino]ethyl}[4-(2,4-dichlorophenyl)-5-(morpholin-4-ylmethyl)pyrimidin-2-yl]amine]: the IC50 is not above 1 µM. Take `Nc1nc(NCCNc2ncc(N3CCOCC3)c(-c3ccc(Cl)cc3Cl)n2)ccc1[N+](=O)[O-]` [{2-[(6-amino-5-nitro(2-pyridyl))amino]ethyl}[4-(2,4-dichlorophenyl)-5-morpholin-4-yl-pyrimidin-2-yl]amine]: the IC50 is not above 1 µM. As to `Cc1c[nH]c(-c2cnc(NCCNc3ccc([N+](=O)[O-])c(N)n3)nc2-c2ccc(F)cc2Cl)n1` [{2-[(6-amino-5-nitro(2-pyridyl))amino]ethyl}[4-(2-chloro-4-fluorophenyl)-5-(4-methylimidazol-2-yl)pyrimidin-2-yl]amine], the IC50 is not above 1 µM. As to `Nc1nc(NCCNc2ncc(-c3ncc[nH]3)c(-c3ccc(F)cc3Cl)n2)ccc1[N+](=O)[O-]` [{2-[(6-amino-5-nitro(2-pyridyl))amino]ethyl}[4-(2-chloro-4-fluorophenyl)-5-imidazol-2-ylpyrimidin-2-yl]amine], the IC50 is not above 1 µM.

For the molecule `Nc1nc(NCCNc2ncc(-c3ncc[nH]3)c(-c3ccccc3Cl)n2)ccc1[N+](=O)[O-]` [{2-[(6-amino-5-nitro(2-pyridyl))amino]ethyl}[4-(2-chlorophenyl)-5-imidazol-2-ylpyrimidin-2-yl]amine], the IC50 is not above 1 µM. Then `Cc1c[nH]c(-c2cnc(NCCNc3ccc([N+](=O)[O-])c(N)n3)nc2-c2ccc(Br)cc2Cl)n1` [{2-[(6-amino-5-nitro(2-pyridyl))amino]ethyl}[4-(4-bromo-2-chlorophenyl)-5-(4-methylimidazol-2-yl)pyrimidin-2-yl]amine], with not above 1 µM; and `Nc1nc(NCCNc2ncc(-c3ncc[nH]3)c(-c3ccc(Br)cc3Cl)n2)ccc1[N+](=O)[O-]` [{2-[(6-amino-5-nitro(2-pyridyl))amino]ethyl}[4-(4-bromo-2-chlorophenyl)-5-imidazol-2-ylpyrimidin-2-yl]amine], with not above 1 µM.
